Reference: patent publication EP4810052A2, “HCRHR2 SELECTIVE POLYPEPTIDES” (Gubra A/S, priority 2023, dated 2026)
Starred links: 1 amine or outer side, 2 acyl side, 3 side chain; linkers in the order of their positions; H or OH if unused. Residues, ends and D or L forms follow the SMILES beside them. Groups on a side chain read outwards from the residue. *: point of attachment. C20 diacid = O=C(O)CCCCCCCCCCCCCCCCCCC(=O)*; γGlu = O=C(O)[C@H](CCC(=O)[*:2])N[*:1]; AEEA = NCCOCCOCC(=O)O

Experiment: Subchronic unilateral ischemia-reperfusion injury (uIRI) in mice
Assay type: in vivo
Details: for BW at termination / Kidney weight at termination: ± SEM
Excerpt: Male C57BL/6jRj mice were obtained from JanVier (JanVier Labs, France) at 10 weeks of age. The animals were single-housed in Individually Ventilated Cages (IVC from Tecniplast, Typ I SL cage) with free access to water, food and encrichments. Animals were allowed to acclimatize for 7 days prior to study start. After acclimatization, animals were randomized into groups based on body weight; 1) Sham, 2) uIRI - Vehicle, 3) uIRI -SEQ ID NO: 3, 30 nmol/kg and 4) uIRI -SEQ ID NO: 3, 100 nmol/kg.
On study day 0, unilateral ischemia-reperfusion injury (uIRI, 25 min of occlusion followed by reperfusion) was performed on study group 2 - 4 (followed by uninephrectomy (UNx) on study day 6. Animals were subcutaneously dosed once daily starting prior to IRI surgery and until study day 7, where animals were terminated. Here plasma was collected, and the remaining kidney weighed and sampled for histological analysis. Kidneys were stained, analyzed and quantified using the following markers: collagen type-1 (col1a1), F4/80 and KIM-1.

[1] = 100 nmol/kg, compared to uIRI vehicle

In the case of `CC[C@H](C)[C@H](N)C(=O)N[C@H](C(=O)N[C@@H](CC(C)C)C(=O)N[C@@H](CO)C(=O)N[C@@H](CC(C)C)C(=O)N[C@@H](CC(=O)O)C(=O)N[C@H](C(=O)N1CCC[C@H]1C(=O)N[C@H](C(=O)NCC(=O)N[C@@H](CC(C)C)C(=O)N[C@@H](CC(C)C)C(=O)N[C@@H](CCC(N)=O)C(=O)N[C@H](C(=O)N[C@@H](CC(C)C)C(=O)N[C@@H](CC(C)C)C(=O)N[C@@H](CCC(=O)O)C(=O)N[C@@H](CCC(N)=O)C(=O)N[C@@H](C)C(=O)N[C@@H](CCCNC(=N)N)C(=O)N[C@@H](C)C(=O)N[C@@H](CCCNC(=N)N)C(=O)N[C@@H](C)C(=O)N[C@@H](C)C(=O)N[C@@H](CCCNC(=N)N)C(=O)N[C@@H](CCC(=O)O)C(=O)N[C@@H](CCC(N)=O)C(=O)N[C@@H](C)C(=O)N[C@@H](CCCCNC(=O)COCCOCCNC(=O)COCCOCCNC(=O)CC[C@H](NC(=O)CC[C@H](NC(=O)CCCCCCCCCCCCCCCCCCC(=O)O)C(=O)O)C(=O)O)C(=O)N[C@H](C(=O)N[C@@H](CC(N)=O)C(=O)N[C@@H](C)C(=O)N[C@@H](CCC(=O)O)C(=O)N[C@H](C(=O)N[C@@H](CC(C)C)C(=O)N[C@@H](C)C(=O)N[C@@H](CCC(=O)O)C(=O)N[C@H](C(N)=O)C(C)C)[C@@H](C)CC)[C@@H](C)O)[C@@H](C)CC)[C@@H](C)CC)C(C)C)C(C)C` [SEQ ID NO: 3] (H-IVLSLDVPIGLLQILLEQARARAAREQAK([AEEA-AEEA-γGlu-γGlu-C20 diacid])TNAEILAEV-NH2), the “Renal fibrosis, Col1a1” value (30 nmol/kg) is reported as 34.3 ± 2.3 fractional area %, the “Renal inflammation, F4/80” value (30 nmol/kg) is reported as 7.3 ± 0.6 fractional area % and the “Renal injury, KIM-1” value (30 nmol/kg) is reported as 7.48 ± 0.49 fractional area %. It also gave a Serum creatinine (30 nmol/kg) of 1.83 ± 0.004 mg/dL, a Serum urea (30 nmol/kg) of 463.0 ± 10.5 mg/dL and a BW at termination (30 nmol/kg) of 24.4 ± 0.5 g. For the same molecule, the “Kidney weight at termination” value (30 nmol/kg) was 0.16 ± 0.005 g, the “Renal fibrosis, Col1a1” value (100 nmol/kg) was 26.4 ± 1.4 fractional area % and the “Renal inflammation, F4/80” value (100 nmol/kg) was 2.5 ± 0.6 fractional area %. The “Renal injury, KIM-1” value (100 nmol/kg) was 6.00 ± 0.50 fractional area %, the Serum creatinine (100 nmol/kg) was 1.17 ± 0.13 mg/dL and the Serum urea (100 nmol/kg) was 433 ± 22.5 mg/dL. The kidney fibrosis [1] was “reduced”, the kidney inflammation [1] was “reduced” and the “serum levels of creatinine” value [1] was “reduced”. For the same molecule, the BW at termination (100 nmol/kg) was 21.8 ± 0.4 g and the “Kidney weight at termination” value (100 nmol/kg) was 0.16 ± 0.006 g.
